Assay results: patent US5037830A, “Novel thiouracyl derivatives, pharmaceutical compositions containing them and process for preparing same” (Richter Gedeon Vegyeszeti Gyar RT, priority 1989, dated 1991)
Where two headings read alike, the source gives them in different places.

Key:
[1] = system: spontaneous gastric acid secretion; test: Gastric acid secretion-inhibiting effect according to Shay's method; format: in vivo, female OFA rats; conditions: for Gastric acid, change / Gastric juice, change: vs control; for Gastric acid, treated: titration with 0.1N NaOH; for inhibitor effect on gastric acid secretion, in words: compared with reference drugs; for ED50: po, gastric acid, Shay rat
Description: After being starved for 24 hours, female OFA rats weighing 130 to 160 g were orally treated with the compounds to be tested. (15 animals were used for each dose.) One hour later laparotomy and pylorus ligature were carried out under ether anaesthesia according to Shay [Gastroenterology 5, 43 (1945)]. After 5 hours the animals were killed by an overdose of ether, their stomaches were excised and the volume and acid content of the gastric juice were determined. The acid was measured by titration with 0.1N NaOH, by using Topfer's indicator.

[2] = system: necrosis induced by ethanol containing hydrochloric acid; test: Cytoprotective effect (modified Robert's test); format: in vivo; conditions: for Bleedings, change: vs control; for ED50: po, cytoprotection
Description: The modified Robert's test [Gastroenterology 17, 761 (1979)] was used. The necrotizing agent (100 ml of abs. ethanol containing 2 ml of concentrated hydrochloric acid) was orally administered in a volume of 0.5 ml/100 g by 30 minutes after giving the compound to be tested. (12 animals were used for each dose.) After 1 hour the animals were killed by ether and the bleedings on the glandular part of their stomach were evaluated.

[3] = system: gastric ulcer after pylorus ligature; test: Gastric ulcer-inhibiting effect in rats operated according to Shay's method; format: in vivo, female OFA rats; conditions: Rattus norvegicus, po, 18 h, p.o.
Description: Female OFA rats starved for 24 hours weighing 150 to 160 g were used. (The animals were allowed to drink water ad libitum). The animals were orally treated with the substance to be tested and after 1 hour laparotomy and pylorus ligature according to Shay [Gastroenterology 5, 43 (1945)] were performed under ether anaesthesia. After 18 hours the number and size of ulcers formed on the membranaceous part of the stomach were examined under microscope. The evaluation was made in relation to the control group and the ED50 values were determined. The sizes of the ulcers were expressed as score values from 0.5 to 32.

[4] = system: reserpine-induced gastric ulcer; test: Inhibition of the reserpine-induced gastric ulcer; format: in vivo, female OFA rats; conditions: Rattus norvegicus, po, 18 h, p.o., reserpine 5 mg/kg s.c.
Description: After being starved for 24 hours, female OFA rats were orally treated with the compounds to be tested and then subcutaneously (s.c.) with 5 mg/kg of reserpine after 1 hour. After 18 hours the animals were killed and their stomach were examined under microscope. The evaluation was performed as described under the preceding paragraph 1.

[5] = read-out: ED50 related to the number of ulcers
[6] = read-out: ED50 related to the occurrance of ulcers
[7] = read-out: ED50 related to the severity of ulcers

Structure (SMILES) | Gastric juice, treated ([1]; 10 mg/kg p.o.) | Gastric acid, change ([1]; 10 mg/kg p.o.) | Gastric juice, change ([1]; 10 mg/kg p.o.) | Gastric acid, treated ([1]; 10 mg/kg p.o.) | Gastric juice, treated ([1]; 20 mg/kg p.o.) | Gastric acid, change ([1]; 20 mg/kg p.o.) | Gastric juice, change ([1]; 20 mg/kg p.o.) | Gastric acid, treated ([1]; 20 mg/kg p.o.) | Gastric juice, treated ([1]; 40 mg/kg p.o.) | Gastric acid, change ([1]; 40 mg/kg p.o.) | Gastric juice, change ([1]; 40 mg/kg p.o.) | Gastric acid, treated ([1]; 40 mg/kg p.o.) | inhibitor effect on gastric acid secretion, in words [1] | ED50 [1] | Gastric juice, treated ([1]; 5 mg/kg p.o.) | Gastric acid, change ([1]; 5 mg/kg p.o.) | Gastric juice, change ([1]; 5 mg/kg p.o.) | Gastric acid, treated ([1]; 5 mg/kg p.o.) | Bleedings, treated ([2]; 5 mg/kg p.o.) | Bleedings, change ([2]; 5 mg/kg p.o.) | also measured
CCN(C)c1ccccc1CSc1nc(C)cc(=O)[nH]1 [Example 10] | 5.23 mL | -32.5% | -13.7% | 1.89 mL | 5.23 mL | -60.3% | -18.0% | 1.23 mL | 5.39 mL | -87.3% | -24.8% | 0.45 mL | equiactive to the NC-1300 reference drug | 15.5 mg/kg |  |  |  |  |  |  | 
CN(C)c1ccccc1CSc1nc(-c2ccccc2)cc(=O)[nH]1 [Example 5, 2-(2-dimethylamino-benzyl)thio-6-phenyl-4(3H)-pyrimidinone] | 5.51 mL | -62.0% | -19.6% | 2.06 mL | 4.33 mL | -86.3% | -37.1% | 0.37 mL | 6.80 mL | -94.5% | +6.8% | 0.18 mL | more active then either of both reference drugs | 8.1 mg/kg | 5.77 mL | -24.9% | -17.3% | 2.11 mL | 73.5 mm | -26.3% | Bleedings, treated ([2]; 10 mg/kg p.o.): 47.6 mm; Bleedings, change ([2]; 10 mg/kg p.o.): -52.3%; Bleedings, treated ([2]; 20 mg/kg p.o.): 24.3 mm; Bleedings, change ([2]; 20 mg/kg p.o.): -81.7%; ED50 [2]: 9.9 mg/kg
COc1ccc2[nH]c([S+]([O-])Cc3ncc(C)c(OC)c3C)nc2c1 (centres unmarked) [Omeprazole, 2-[[(3,5-dimethyl-4-methoxypyridin-2-il)-methyl]-sulfinyl]-5-methoxy-1H-benzimidazole, reference compound] | 5.47 mL | -37.3% | -20.5% | 1.70 mL | 4.30 mL | -74.7% | -38.4% | 0.71 mL |  |  |  |  |  | 10.5 mg/kg | 5.40 mL | -35.4% | -21.5% | 1.75 mL | 61.8 mm | -27.1% | Bleedings, treated ([2]; 10 mg/kg p.o.): 46.0 mm; Bleedings, change ([2]; 10 mg/kg p.o.): -45.8%; Bleedings, treated ([2]; 20 mg/kg p.o.): 14.2 mm; Bleedings, change ([2]; 20 mg/kg p.o.): -83.8%; ED50 [2]: 10 mg/kg; ED50 [3, 5]: 9.2 mg/kg; ED50 [3, 6]: 17 mg/kg; ED50 [3, 7]: 11 mg/kg; ED50 [4, 5]: 17 mg/kg; ED50 [4, 6]: 24 mg/kg; ED50 [4, 7]: 20 mg/kg
